Experimental data: PubChem BioAssay AID248 (DTP/NCI, 2004)
Toxic doses and inconclusive results are not listed. Rule as the data show it: active = T/C of 150% or more; inactive = T/C below 125%.

System: L1210 leukemia ip in BDF1 mice, survival T/C
Assay: NCI In Vivo Anticancer Drug Screen. Data for tumor model L1210 Leukemia (intraperitoneal) in B6D2F1 (BDF1) mice
Settings: endpoint: mean survival time, higher = longer survival
Summary of the method: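 In this screen, tumor-bearing mice given compound are compared to those given vehicle, and their survival values are reported as a treated-to-control quotient.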

[1] = dose: 100.0 mg/kg/injection, schedule: Q01DX009 (ip), vehicle: Klucel (hydroxypropylcellulose) (HPC)
[2] = dose: 100.0 mg/kg/injection, schedule: Q01DX009 (ip), vehicle: saline with Tween-80
[3] = dose: 100.0 mg/kg/injection, schedule: Q04DX003 (ip), vehicle: Klucel (hydroxypropylcellulose) (HPC)
[4] = dose: 100.0 mg/kg/injection, schedule: Q04DX003 (ip), vehicle: saline with Tween-80
[5] = dose: 200.0 mg/kg/injection, schedule: Q01DX009 (ip), vehicle: Klucel (hydroxypropylcellulose) (HPC)
[6] = dose: 200.0 mg/kg/injection, schedule: Q01DX009 (ip), vehicle: saline with Tween-80
[7] = dose: 200.0 mg/kg/injection, schedule: Q04DX003 (ip), vehicle: Klucel (hydroxypropylcellulose) (HPC)
[8] = dose: 200.0 mg/kg/injection, schedule: Q04DX003 (ip), vehicle: saline with Tween-80
[9] = dose: 400.0 mg/kg/injection, schedule: Q01DX009 (ip), vehicle: Klucel (hydroxypropylcellulose) (HPC)
[10] = dose: 400.0 mg/kg/injection, schedule: Q04DX003 (ip), vehicle: Klucel (hydroxypropylcellulose) (HPC)
[11] = dose: 400.0 mg/kg/injection, schedule: Q04DX003 (ip), vehicle: saline with Tween-80
[12] = dose: 100.0 mg/kg/injection, schedule: Q01DX001 (ip), vehicle: saline
[13] = dose: 200.0 mg/kg/injection, schedule: Q01DX001 (ip), vehicle: saline
[14] = dose: 400.0 mg/kg/injection, schedule: Q01DX001 (ip), vehicle: saline
[15] = dose: 100.0 mg/kg/injection, schedule: Q01DX009 (ip), vehicle: saline
[16] = dose: 200.0 mg/kg/injection, schedule: Q01DX009 (ip), vehicle: saline
[17] = dose: 400.0 mg/kg/injection, schedule: Q01DX009 (ip), vehicle: saline
[18] = dose: 100.0 mg/kg/injection, schedule: Q04DX002 (ip), vehicle: saline with Tween-80
[19] = dose: 200.0 mg/kg/injection, schedule: Q04DX002 (ip), vehicle: saline with Tween-80
[20] = dose: 400.0 mg/kg/injection, schedule: Q04DX002 (ip), vehicle: saline with Tween-80
[21] = dose: 75.0 mg/kg/injection, schedule: Q01DX001 (ip), vehicle: carboxymethylcellulose (CMC)
[22] = dose: 150.0 mg/kg/injection, schedule: Q01DX001 (ip), vehicle: carboxymethylcellulose (CMC)

Measured: T/C

O=C(/C=C/c1ccccc1O)c1ccccc1
inactive: [1] 98 % of control | [2] 110 % of control | [3] 113 % of control | [4] 94 % of control | [5] 100 % of control | [6] 101 % of control | [7] 113 % of control | [8] 102 % of control | [9] 90 % of control | dose: 400.0 mg/kg/injection, schedule: Q01DX009 (ip), vehicle: saline with Tween-80 102 % of control | [10] 103 % of control | [11] 96 % of control

NC(=O)c1ccccc1NC(=O)Nc1cc(C(F)(F)F)ccc1Cl
inactive: [1] 96 % of control | [5] 86 % of control | [9] 97 % of control

Cc1ccc(NC(=S)NCCc2ccccn2)cc1C
inactive: [1] 96 % of control | [5] 99 % of control | [9] 91 % of control

CCOC(=O)/C=C/C(=O)N(C)c1ccccc1
inactive: dose: 100.0 mg/kg/injection, schedule: Q01DX001 (ip), vehicle: other 100 % of control | dose: 200.0 mg/kg/injection, schedule: Q01DX001 (ip), vehicle: other 100 % of control | dose: 400.0 mg/kg/injection, schedule: Q01DX001 (ip), vehicle: other 108 % of control

Cc1c(Br)c(=O)[nH]c2c(C)cccc12
inactive: [12] 98 % of control | [13] 98 % of control | [14] 96 % of control

C1CCCCCC(NC2=NCCO2)CCCCC1
inactive: dose: 25.0 mg/kg/injection, schedule: Q04DX003 (ip), vehicle: saline with Tween-80 97 % of control | dose: 50.0 mg/kg/injection, schedule: Q04DX003 (ip), vehicle: saline with Tween-80 102 % of control | [4] 88 % of control

O=C(O)c1ccc(-c2ccc(C(=O)O)cc2I)c(I)c1
inactive: [2] 92 % of control | [4] 91 % of control | [6] 87 % of control | [8] 96 % of control | [11] 94 % of control

CC(C)C(NC(=O)NCCCl)c1ccccc1 (stereo unspecified)
inactive: [3] 88 % of control | [7] 88 % of control

CCC(CC)(CC#N)C1CCCCC1
inactive: dose: 50.0 mg/kg/injection, schedule: Q01DX001 (ip), vehicle: carboxymethylcellulose (CMC) 98 % of control | dose: 100.0 mg/kg/injection, schedule: Q01DX001 (ip), vehicle: carboxymethylcellulose (CMC) 104 % of control | dose: 200.0 mg/kg/injection, schedule: Q01DX001 (ip), vehicle: carboxymethylcellulose (CMC) 98 % of control | dose: 400.0 mg/kg/injection, schedule: Q01DX001 (ip), vehicle: carboxymethylcellulose (CMC) 104 % of control

O=S(=O)(/C(Br)=C\c1ccccc1)c1ccccc1
inactive: [12] 103 % of control | [15] 104 % of control | dose: 100.0 mg/kg/injection, schedule: Q04DX003 (ip), vehicle: saline 98 % of control | [13] 102 % of control | [16] 110 % of control | dose: 200.0 mg/kg/injection, schedule: Q04DX003 (ip), vehicle: saline 101 % of control | [14] 102 % of control | [17] 98 % of control | dose: 400.0 mg/kg/injection, schedule: Q04DX003 (ip), vehicle: saline 98 % of control

CCC(CCC(C)C1CCC2C3CC=C4CC(OC(=O)Nc5ccccc5)CCC4(C)C3CCC12C)C(C)C (stereo unspecified)
inactive: [18] 87 % of control | [19] 87 % of control | [20] 94 % of control

CN=C(c1ccc(NC(=O)c2ccc(C(=O)Nc3ccc(C(=NC)N(C)C(C)=O)cc3)c(Cl)c2)cc1)N(C)C(C)=O
inactive: dose: 25.0 mg/kg/injection, schedule: Q01DX015 (ip), vehicle: methylcellulose (MC) 95 % of control | dose: 50.0 mg/kg/injection, schedule: Q01DX015 (ip), vehicle: methylcellulose (MC) 93 % of control | dose: 75.0 mg/kg/injection, schedule: Q01DX015 (ip), vehicle: methylcellulose (MC) 96 % of control | dose: 200.0 mg/kg/injection, schedule: Q01DX015 (ip), vehicle: methylcellulose (MC) 93 % of control

O=C(C#CC(=O)c1ccccc1)c1ccccc1
inactive: dose: 20.0 mg/kg/injection, schedule: Q04DX003 (ip), vehicle: gum acacia 95 % of control | dose: 40.0 mg/kg/injection, schedule: Q04DX003 (ip), vehicle: gum acacia 101 % of control | dose: 80.0 mg/kg/injection, schedule: Q04DX003 (ip), vehicle: gum acacia 100 % of control

COC1CCC(/C=C(\C#N)C2CCC(C)CC2)CC1 (stereo unspecified)
inactive: [18] 94 % of control | [19] 97 % of control | [20] 94 % of control

O=C1C(n2ccc(=O)[nH]c2=O)CCN1CCO (stereo unspecified)
inactive: [15] 105 % of control | [16] 100 % of control | [17] 97 % of control

O=C(Nc1ccccc1)Nc1ccc(Cl)cc1Cl
inactive: dose: 12.5 mg/kg/injection, schedule: Q04DX002 (ip), vehicle: other 107 % of control | dose: 25.0 mg/kg/injection, schedule: Q04DX002 (ip), vehicle: other 93 % of control | dose: 50.0 mg/kg/injection, schedule: Q04DX002 (ip), vehicle: other 90 % of control | dose: 100.0 mg/kg/injection, schedule: Q04DX002 (ip), vehicle: other 96 % of control

Cc1ccccc1S(=O)(=O)NC1c2ccccc2Oc2ccccc21
inactive: dose: 75.0 mg/kg/injection, schedule: Q01DX001 (ip), vehicle: saline 96 % of control | dose: 75.0 mg/kg/injection, schedule: Q01DX009 (ip), vehicle: saline 86 % of control | dose: 150.0 mg/kg/injection, schedule: Q01DX001 (ip), vehicle: saline 86 % of control | dose: 300.0 mg/kg/injection, schedule: Q01DX001 (ip), vehicle: saline 86 % of control

O=C(O)CCC1CC1C(=O)c1ccccc1 (stereo unspecified)
inactive: dose: 50.0 mg/kg/injection, schedule: Q04DX003 (ip), vehicle: Klucel (hydroxypropylcellulose) (HPC) 102 % of control | [3] 100 % of control | [7] 103 % of control | [10] 103 % of control

OCc1nc2cc3nc(CO)[nH]c3cc2[nH]1
inactive: [21] 98 % of control | [22] 101 % of control

COc1ccc(CCN(C)C2CC3CCC2(C)C3(C)C)cc1OC (stereo unspecified)
inactive: [12] 93 % of control | [13] 96 % of control | [14] 100 % of control

C/C(=N/N(C)C)c1ccccc1O
inactive: [1] 103 % of control | [5] 106 % of control | [9] 92 % of control

OC1CC2(Cl)C(Cl)=C(Cl)C1(Cl)C2(Cl)Cl (stereo unspecified)
inactive: [21] 87 % of control | [22] 95 % of control | dose: 300.0 mg/kg/injection, schedule: Q01DX001 (ip), vehicle: carboxymethylcellulose (CMC) 93 % of control
